Experimental data from US12180226B2, “Spirotricycle RIPK1 inhibitors and methods of uses thereof” (Merck Sharp & Dohme LLC, priority 2021, dated 2024).
Structures can show the parent of a compound that is named as a salt.

Molecular target: RIPK1 (recombinant GST-RIPK1 kinase domain, residues 1-327) (Homo sapiens (Human), UniProt Q13546)
Assay: RIPK1-ADP-Glo Enzymatic Assay
Assay type: biochemical
Details: ADP-Glo; 25 nM GST-RIPK1, 300 μM ATP; assay lower limit ~25 nM; read-out: RIPK1 V0 Ec50
In short: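 Luminescent ADP-Glo readout of ATP-to-ADP conversion. Conditions: 25 nM enzyme, 300 μM ATP, 3 μM dephospho-MBP, pH 7.3 HEPES buffer with 20 mM MgCl2; 30 min compound pre-incubation, 150 min reaction. EC50 via four-parameter sigmoidal regression; assay floor ~25 nM.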

Chain of RIPK1 (recombinant GST-RIPK1 kinase domain, residues 1-327) (Q13546 1-327): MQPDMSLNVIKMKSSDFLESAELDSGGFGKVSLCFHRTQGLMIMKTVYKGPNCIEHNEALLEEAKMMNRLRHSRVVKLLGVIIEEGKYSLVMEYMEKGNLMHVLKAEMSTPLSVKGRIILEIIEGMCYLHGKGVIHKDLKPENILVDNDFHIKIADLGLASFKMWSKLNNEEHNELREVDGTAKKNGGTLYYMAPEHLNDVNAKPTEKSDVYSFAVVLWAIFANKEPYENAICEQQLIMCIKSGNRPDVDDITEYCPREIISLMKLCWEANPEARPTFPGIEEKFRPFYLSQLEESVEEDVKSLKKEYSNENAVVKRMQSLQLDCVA

Row | EC50 [µM] | Compound
1 | < 0.025 | O=C1N2[C@@H](CC[C@H]2c2cc(F)cc(F)c2)OC12CCN(c1ccnn3ccnc13)CC2 [Example 13.3, (5′S,7a′R)-5′-(3,5-difluorophenyl)-1-(imidazo[1,2-b]pyridazin-8-yl)tetrahydro-3′H-spiro[piperidine-4,2′-pyrrolo[2,1-b]oxazol]-3′-one, TFA salt]
2 | 0.0345 | O=C1N2[C@@H](CC[C@H]2c2ccccc2F)OC12CN(c1cc(-c3ccccc3)no1)C2 [Example 11.35, (5′S,7a′R)-5′-(2-fluorophenyl)-1-(3-phenyl-1,2-oxazol-5-yl)tetrahydro-3′H-spiro[azetidine-3,2′-pyrrolo[2,1-b][1,3]oxazol]-3′-one]
3 | < 0.025 | CC1C[C@@]2(CCN1C(=O)c1ccccc1)O[C@@H]1CC[C@@H](c3cccc(F)c3)N1C2=O (stereo partly drawn) [Example 6.160, (4R,5′S,7a′R)-1-(benzenecarbonyl)-5′-(3-fluorophenyl)-2-methyltetrahydro-3′H-spiro[piperidine-4,2′-pyrrolo[2,1-b] [1,3]oxazol]-3′-one]
4 | 0.0451 | O=C(c1ncccc1F)N1CCC2(CC1)O[C@@H]1CC[C@@H](c3cc(F)cc(F)c3)N1C2=O [Example 6.54, (5′S,7a'R)-5′-(3,5-difluorophenyl)-1-(3-fluoropyridine-2-carbonyl)tetrahydro-3′H-spiro[piperidine-4,2′-pyrrolo[2,1-b] [1,3]oxazol]-3-one]
5 | 0.271 | COC1(C)CN(C(=O)c2nc(N3CCC4(CC3)O[C@@H]3CC[C@@H](c5cc(F)cc(F)c5)N3C4=O)ncc2F)C1 [Example 7.6, (5′S,7a′R)-5′-(3,5-difluorophenyl)-1-[5-fluoro-4-(3-methoxy-3-methylazetidine-1-carbonyl)pyrimidin-2-yl]tetrahydro-3′H-spiro[piperidine-4,2′-pyrrolo[2,1-b][1,3]oxazol]-3′-one]
6 | 0.0288 | COCOc1cc(-c2ccc(N3CCC4(CC3)O[C@@H]3CC[C@@H](c5ccccc5)N3C4=O)nc2)on1 [Example 4.164, (5′S,7a′R)-1-{5-[3-(methoxymethoxy)-1,2-oxazol-5-yl]pyridin-2-yl}-5′-phenyltetrahydro-3′H-spiro[piperidine-4,2′-pyrrolo[2,1-b] [1,3]oxazol]-3′-one]
7 | < 0.025 | Cn1cnc(-c2ccc(N3CCC4(CC3)O[C@@H]3CC[C@@H](c5ccccc5)N3C4=O)n3ncnc23)c1 [Example 21.21, (5′S,7a′R)-1-[8-(1-methyl-1H-imidazol-4-yl)[1,2,4]triazolo[1,5-a]pyridin-5-yl]-5′-phenyltetrahydro-3′H-spiro[piperidine-4,2′-pyrrolo[2,1-b][l,3]oxazol]-3′-one]
8 | < 0.025 | COc1nc(N2CCC3(CC2)O[C@@H]2CC[C@@H](c4ccccc4)N2C3=O)ncc1F [Example 11.29, (5′S,7a′R)-1-(5-fluoro-4-methoxypyrimidin-2-yl)-5′-phenyltetrahydro-3′H-spiro[piperidine-4,2′-pyrrolo[2,1-b][1,3]oxazol]-3′-one]
9 | 0.0454 | COc1cnc(N2CCC3(CC2)O[C@@H]2CC[C@@H](c4ccccc4)N2C3=O)n2ncnc12 [Example 19.6, (5′S,7a′R)-1-(8-methoxy[1,2,4]triazolo [1,5-c]pyrimidin-5-yl)-5′-phenyltetrahydro-3′H-spiro[piperidine-4,2′-pyrrolo[2,1-b][1,3]oxazol]-3′-one]
10 | 0.342 | O=C(c1ccccc1)N1CCC2(CC1)O[C@@H]1CC[C@@H](c3cnc4c(c3)CCC4)N1C2=O [Example 17.12, (5′S,7a′R)-1-benzoyl-5′-(6,7-dihydro-5H-cyclopenta[b]pyridin-3-yl)tetrahydro-3′H-spiro[piperidine-4,2′-pyrrolo[2,1-b]oxazol]-3′-one]
11 | 0.189 | Cc1nocc1C(=O)N1CCC2(CC1)O[C@@H]1CC[C@@H](c3cc(F)cc(F)c3)N1C2=O [Example 5.33, (5′S,7a′R)-5′-(3,5-difluoro-phenyl)-1-(3-methylisoxa-zole-4-carbonyl)tetrahydro-3′H-spiro[piperidine-4,2′-pyrrolo[2,1-b]oxazol]-3′-one]
12 | 0.196 | N#Cc1cc([C@@H]2CC[C@H]3OC4(CCN(C(=O)c5ccccc5)CC4)C(=O)N32)ccc1F [Example 17.4, 5-((5′S,7a′R)-1-benzoyl-3′-oxotetrahydro-3′H-spiro[piperidine-4,2′-pyrrolo[2,1-b]oxazol]-5′-yl)-2-fluorobenzonitrile]
13 | 0.0392 | COc1nc(N2CCC3(CC2)O[C@@H]2CC[C@@H](c4cc(F)cc(F)c4)N2C3=O)ncc1Cl [Example 4.62, (5′S,7a′R)-1-(5-chloro-4-methoxypyrimidin-2-yl)-5′-(3,5-difluorophenyl)tetrahydro-3′H-spiro[piperidine-4,2′-pyrrolo[2,1-b] [1,3]oxazol]-3′-one]
14 | 0.0667 | O=C(c1ccc(Br)cn1)N1CCC2(CC1)O[C@@H]1CC[C@@H](c3cc(F)cc(F)c3)N1C2=O [Example 6.100, (5′S,7a′R)-1-(5-bromo-pyridine-2-carbonyl)-5′-(3,5-difluorophen-yl)tetrahydro-3′H-spiro[piperidine-4,2′-pyrrolo[2,1-b][1,3]-oxazol]-3′-one]
15 | 0.128 | CC(F)c1cc(N2CCC3(CC2)O[C@@H]2CC[C@@H](c4ccccc4)N2C3=O)ncn1 (stereo partly drawn) [Example 4.214, (5′S,7a′R)-1-[6-(1-fluoroethyl)pyrimidin-4-yl]-5′-phenyltetrahydro-3′H-spiro[piperidine-4,2′-pyrrolo[2,1-b] [1,3]oxazol]-3′-one]
16 | 0.0983 | O=C(c1ccccc1)N1CC2(C1)S[C@@H]1CC[C@@H](c3cc(F)cc(F)c3)N1C2=O [Example 1.25, (5′S,7a′R)-1-benzoyl-5′-(3,5-difluorophenyl)tetrahydro-3′H-spiro[azetidine-3,2′-pyrrolo[2,1-b]thiazol]-3′-one]
17 | 0.328 | N#Cc1ccccc1C(=O)N1CCC2(CC1)O[C@@H]1CC[C@@H](c3ccccc3)N1C2=O [Example 6.147, 2-[(5′S,7a′R)-3′-oxo-5′-phenyltetrahydro-1H,3′H-spiro[piperi-dine-4,2′-pyrrolo[2,1-b][1,3]oxazole]-1-carbonyl]benzonitrile]
18 | 0.0578 | O=C1N2[C@@H](CC[C@H]2c2ccccc2)OC12CCN(c1cnc(-c3ncco3)cn1)CC2 [Example 21.14, (5′S,7a′R)-1-[5-(1,3-oxazol-2-yl)pyrazin-2-yl]-5′-phenyltetrahydro-3′H-spiro[piperidine-4,2′-pyrrolo[2,1-b][1,3]oxazol]-3′-one]
19 | 0.394 | COc1cccc([C@@H]2CC[C@H]3OC4(CCN(c5cc(C#N)ncn5)CC4)C(=O)N32)c1 [Example 20.3, 6-[(5′S,7a′R)-5′-(3-methoxyphenyl)-3′-oxotetrahydro-1H,3′H-spiro[piperidine-4,2′-pyrrolo[2,1-b][1,3]oxazol]-1-yl]pyrimidine-4-carbonitrile]
20 | < 0.025 | CN(C)c1cccc(C(=O)N2CCC3(CC2)O[C@@H]2CC[C@@H](c4ccccc4)N2C3=O)c1 [Example 6.144, (5′S,7a′R)-1-[3-(dimethylamino)ben-zene-1-carbonyl]-5′-phenyltetrahydro-3′H-spiro[piperidine-4,2′-pyrrolo[2,1-b][1,3]oxazol]-3'-one]
21 | 0.172 | Cn1ccc(C(=O)N2CCC3(CC2)O[C@@H]2CC[C@@H](c4cc(F)cc(F)c4)N2C3=O)n1 [Example 5.39, (5′S,7a′R)-5′-(3,5-difluoro-phenyl)-1-(1-methyl-1H-pyrazole-3-carbonyl)tetra-hydro-3′H-spiro[piperi-dine-4,2′-pyrrolo[2,1-b]oxazol]-3′-one]
22 | < 0.025 | N#Cc1ccc(F)c([C@@H]2CC[C@H]3OC4(CCN(c5ccnc6c(F)cnn56)CC4)C(=O)N32)c1 [Example 20.4, 4-fluoro-3-[(5′S,7a′R)-1-(3-fluoropyrazolo[1,5-a]pyrimidin-7-yl)-3′-oxotetrahydro-3′H-spiro[piperidine-4,2′-pyrrolo[2,1-b][1,3]oxazol]-5′-yl]benzonitrile]
23 | 0.244 | O=C(c1cc(I)c(I)c(I)c1)N1CCC2(CC1)O[C@@H]1CC[C@@H](c3cc(F)cc(F)c3)N1C2=O [Example 5.65, (5′S,7a′R)-5′-(3,5-difluoro-phenyl)-1-(3,4,5-triiodo-benzoyl)tetrahydro-3′H-spiro[piperidine-4,2′-pyrrolo[2,1-b]oxazol]-3′-one]
24 | < 0.025 | O=C1N2C(CCC2c2c(F)cccc2F)OC12CCN(c1ccnc3ccnn13)CC2 (stereo not shown) [Example 20.8, 5′-(2,6-difluorophenyl)-1-(pyrazolo[1,5-a]pyrimidin-7-yl)tetrahydro-3′H-spiro[piperidine-4,2′-pyrrolo[2,1-b][1,3]oxazol]-3′-one]
25 | < 0.025 | C#Cc1ccnc(C(=O)N2CCC3(CC2)O[C@@H]2CC[C@@H](c4cc(F)cc(F)c4)N2C3=O)c1 [Example 5.43, (5′S,7a′R)-5′-(3,5-difluoro-phenyl)-1-(4-ethynylpico-linoyl)tetrahydro-3′H-spiro[piperidine-4,2′-pyrrolo[2,1-b]oxazol]-3′-one]
26 | 0.0344 | O=C1N2[C@@H](CC[C@H]2c2ccccc2)OC12CCN(c1cccn3nccc13)CC2 [Example 4.150, (5′S,7a′R)-5′-phenyl-1-(pyrazolo[1,5-a]pyridin-4-yl)tetrahydro-3′H-spiro[piperidine-4,2′-pyrrolo[2,1-b] [1,3]oxazol]-3′-one]
27 | < 0.025 | O=C(c1ccn2ccccc12)N1CCC2(CC1)O[C@@H]1CC[C@@H](c3cc(F)cc(F)c3)N1C2=O [Example 5.68, (5′S,7a′R)-5′-(3,5-difluoro-phenyl)-1-(indolizine-1-carbonyl)tetrahydro-3′H-spiro[piperidine-4,2′-pyrrolo[2,1-b]oxazol]-3′-one]
28 | 0.236 | O=C(C1CCCCC1)N1CCC2(CC1)O[C@@H]1CC[C@@H](c3cc(F)cc(F)c3)N1C2=O [Example 5.7, (5′S,7a′R)-1-(cyclohexane-carbonyl)-5′-(3,5-difluoro-phenyl)tetrahydro-3′H-spiro[piperidine-4,2′-pyrrolo[2,1-b][1,3]oxazol]-3′-one]
